Test results as given in publication PMC12058161, “The plant matrix of Artemisia annua L. for the treatment of malaria: Pharmacodynamic and pharmacokinetic studies” (PLOS One, 2025).
Values joined by “and” are separate entries in the source; they are usually repeats but may differ in a detail not shown here. Equal entries are not always repeated.

What was measured:
in vivo = settings: male, Sprague Dawley, rat, po, 352 mg/kg
Method: (§1) Blood samples were centrifuged at 3500 rpm for 5 min at 4°C. All plasma samples were then stored at -80°C until analysis.
(§2) All samples were stored in a refrigerator at -80°C and thawed at room temperature before processing. A 50 μL aliquot of plasma was added with 5 μL of the standard solution (or acetonitrile) and 100 μL of internal standard solution in turn, vortexed and mixed, then sonicated for 3 min, centrifuged at 14000 rpm for 10 min at low temperature. The supernatant was transferred to an autosampler vial and analyzed by UHPLC-ESI-MS/MS.
(§3) The mobile phase consisted of 0.1% formic acid solution (A) and acetonitrile (B).
(§4) The ESI ionization source was used and detected in MRM mode.
(§5) All data were presented as mean ± SD. Pharmacokinetic parameters including half-life (t1/2), maximum plasma time (Tmax) and concentration (Cmax), area under concentration-time curve (AUC0-t and AUC0-∞), clearance (CL), steady-state volume of distribution (Vz), and mean residence time (MRT) were analyzed by non-compartmental method using DAS Version 2.0 (Chinese Pharmacological Society, Beijing, China). […] The data were analyzed by Student’s t-test for two groups and one-way analysis of variance for multiple groups; p < 0.05 was considered statistically significant.

P-glycoprotein (P-gp) = molecular target: T1, P-glycoprotein (P-gp) (Homo sapiens, UniProt P08183); assay: Rhodamine 123 (P-gp substrate) transport across drug-treated Caco-2 cell monolayers; type: cell-based; settings: co-incubated with R123, 10 μM, Caco-2 monolayer, Fig 6
T1 construct: The transport of R123 in normal Caco-2 cell monolayers or drug-treated Caco-2 cell monolayers was further studied; host or cells: Caco-2
Text: The human epithelial cell line Caco-2 serves as a widely recognized model for the intestinal epithelial barrier, frequently utilized in the assessment of drug absorption and transport mechanisms. In this study, we evaluated drug absorption and distribution in vitro with the help of the Caco-2 cell model. Caco-2 cells were purchased from the Chinese Academy of Medical Sciences (Beijing, China, Resource No. 3111C0001CCC000100). The cells were resuscitated and inserted into culture flasks. Caco-2 cells were passaged with DMEM high glucose medium containing 10% (V/V) FBS, 1% (V/V) non-essential amino acid solution and 100 U/mL penicillin-streptomycin double antibiotic solution, and cultured at 37°C in a 5% CO2 incubator. […] The integrity of the cell monolayer was checked by measuring the transmembrane electrical resistance (TEER) of the monolayer cells with a Millicell-ERS electrode (Millipore Corp., Billerica, MA, USA). Caco-2 cells were used for transport experiments 17–21 days after inoculation. Besides, only monolayers with TEER values above 400 Ω/cm^2 were used in the study.
The transport of R123 in normal Caco-2 cell monolayers or drug-treated Caco-2 cell monolayers was further studied. […] The transport buffer containing 5 μM of R123 was added on either the AP or the BL side of the inserts, as described above. […] The concentrations of R123 were immediately analyzed by SpectraMax iD3. The excitation wavelength was set at 485 nm, and the emission wavelength at 535 nm. Papp values across the cell monolayers were calculated according to the equation: Papp = dQ/dt × 1/(A × C0), where dQ/dt represents the rate of drug transport. […] The efflux ratio was calculated using the Papp (BL-AP) to Papp (AP-BL) ratio.

[1] = male, Sprague Dawley, rat, in vivo, po, 352 mg/kg
Method: as §1, §2, §3, §4, §5

[2] = Stability of the five compounds in SD rat plasma (QC samples, UHPLC-ESI-MS/MS); type: in vitro ADME; settings: for mean measured concentration: rat plasma, mean of 5; for stability, Accuracy (measured versus nominal concentration) / stability, mean ± SD (measured concentration): SD rat plasma, n=5
Method: The method was validated according to the US Food and Drug Administration (FDA) Bioanalytical Method Validation Guidance as follows: [1] specificity was assessed by analyzing blank plasma, blank plasma spiked with standard solutions and rat plasma samples after oral administration. Each calibration curve was plotted using the concentration of the standard solution as the horizontal coordinate and the ratio of analyte to internal standard peak area as the vertical coordinate. The lower limit of quantification (LLOQ) refers to the lowest concentration, which is typically 10 times the signal-to-noise ratio. It has an acceptable accuracy of ± 20% and a precision of less than 20% [3]. Quality Control (QC) samples (low, medium and high concentrations) were prepared for each analyte. Five samples were analyzed at each concentration level and three consecutive batches were determined to calculate the accuracy and precision of the method. Extraction recovery was assessed by the ratio of the average peak area of routinely prepared QC samples (low, medium, and high concentrations) to the post-extraction plasma sample. Likewise, matrix effect was assessed by the ratio of peak areas between post-extraction samples spiked with analytes and mobile phases spiked with the same concentration of analytes.

Caco-2 cells = assay: Cytotoxicity in Caco-2 cells, CCK-8 assay; type: cell-based, human; settings: for Cell survival rate%: mean; for cck-8 mean (survival fraction): mean of 6
Method: Caco-2 cells were cultured in 96-well plates for 48 h at a seeding density of 5.0 × 10^3 cells/well before the addition of drugs. […] The final concentration of DMSO was 0.05% (v/v). Experiments were initiated by replacing the culture medium in each well with 100 μL of sample solutions at 37°C in the CO2 incubator. After 48 h of incubation, the medium was removed and 10 μL of CCK-8 reagent in the serum-free medium was added to each well. The plates were then incubated at 37°C for another 2 h. At the end of the incubation period, the plates were quantified by reading the absorbance at 450 nm on a micro-plate multi-detection instrument, SpectraMax iD3 with SoftMax® Pro (Molecular Devices Corporation Sunnyvale, CA, USA). The percentage of cell viability was calculated based on the absorbance measured relative to the absorbance of cells exposed to the negative control.

[3] = nominal 160 ng/mL, 3 freeze-thaw cycles
[4] = nominal 160 ng/mL, 7 days at -80°C
[5] = nominal 160 ng/mL, Room temperature 24h
[6] = nominal 1000 ng/mL, 3 freeze-thaw cycles
[7] = nominal 1000 ng/mL, 7 days at -80°C
[8] = nominal 1000 ng/mL, Room temperature 24h
[9] = nominal 5000 ng/mL, 3 freeze-thaw cycles
[10] = nominal 5000 ng/mL, 7 days at -80°C
[11] = nominal 5000 ng/mL, Room temperature 24h
[12] = Caco-2, concentration 10 μmol/L
[13] = Caco-2, concentration 20 μmol/L
[14] = Caco-2, concentration 40 μmol/L
[15] = Caco-2, concentration 80 μmol/L

T1 sequence (P08183 whole entry): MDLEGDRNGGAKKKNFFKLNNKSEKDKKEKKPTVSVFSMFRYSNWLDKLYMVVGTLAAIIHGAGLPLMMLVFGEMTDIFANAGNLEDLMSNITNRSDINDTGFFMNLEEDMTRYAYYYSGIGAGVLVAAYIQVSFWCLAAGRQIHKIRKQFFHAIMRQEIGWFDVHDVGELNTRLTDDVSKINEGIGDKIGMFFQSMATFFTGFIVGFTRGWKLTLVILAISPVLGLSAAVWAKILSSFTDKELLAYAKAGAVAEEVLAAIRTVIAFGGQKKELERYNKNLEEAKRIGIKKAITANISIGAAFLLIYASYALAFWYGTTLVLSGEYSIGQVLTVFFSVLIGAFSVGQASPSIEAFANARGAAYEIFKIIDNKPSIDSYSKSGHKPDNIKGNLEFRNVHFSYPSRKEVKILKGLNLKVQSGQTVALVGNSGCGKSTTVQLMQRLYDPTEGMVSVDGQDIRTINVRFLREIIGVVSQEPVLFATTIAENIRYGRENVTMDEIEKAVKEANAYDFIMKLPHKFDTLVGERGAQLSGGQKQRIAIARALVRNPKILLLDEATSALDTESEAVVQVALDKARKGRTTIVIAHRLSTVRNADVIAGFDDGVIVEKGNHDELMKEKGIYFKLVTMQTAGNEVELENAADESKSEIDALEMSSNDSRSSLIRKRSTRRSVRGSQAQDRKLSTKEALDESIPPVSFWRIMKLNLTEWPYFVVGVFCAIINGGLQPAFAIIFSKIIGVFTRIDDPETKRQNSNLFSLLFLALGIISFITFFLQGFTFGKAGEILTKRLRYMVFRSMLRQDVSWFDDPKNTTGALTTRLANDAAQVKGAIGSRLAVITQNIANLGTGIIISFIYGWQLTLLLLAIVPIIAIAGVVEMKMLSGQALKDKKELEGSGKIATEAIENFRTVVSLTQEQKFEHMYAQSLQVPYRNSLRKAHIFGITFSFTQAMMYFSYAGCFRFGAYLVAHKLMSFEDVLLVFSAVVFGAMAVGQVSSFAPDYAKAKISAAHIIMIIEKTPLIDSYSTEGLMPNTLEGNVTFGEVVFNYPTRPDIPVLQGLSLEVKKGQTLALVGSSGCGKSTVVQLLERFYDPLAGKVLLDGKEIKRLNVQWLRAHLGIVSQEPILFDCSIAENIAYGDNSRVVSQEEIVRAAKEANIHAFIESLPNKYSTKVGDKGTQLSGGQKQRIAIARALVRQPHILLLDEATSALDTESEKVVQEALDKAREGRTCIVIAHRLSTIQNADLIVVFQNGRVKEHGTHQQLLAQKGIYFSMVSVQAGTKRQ

- AUC(0-inf) (in vivo): 23700 ± 4990 ng·h/mL
- AUC(0-t) (in vivo): 23000 ± 4720 ng·h/mL
- Cmax (in vivo; Cmax): 5370 ± 590 ng/mL
- half-life (in vivo; t1/2): 4.29 ± 1.37 h
- reduction of R123 transport from the BL side to the AP side (P-glycoprotein (P-gp)): 26.82%
- CL [1]: 0.001 ± 0.001 L/h
- CLz [1]: 24 mL/day/kg
- mean measured concentration ([2]; AA QC 160ng, 3 freeze-thaw cycles): 175.436 ng/mL
- mean measured concentration ([2]; AA QC 160ng, 7 days at -80°C): 168.832 ng/mL
- mean measured concentration ([2]; AA QC 160ng, Room temperature 24h): 151.908 ng/mL
- mean measured concentration ([2]; AA QC 1000ng, 3 freeze-thaw cycles): 947.702 ng/mL
- mean measured concentration ([2]; AA QC 1000ng, 7 days at -80°C): 919.418 ng/mL
- mean measured concentration ([2]; AA QC 1000ng, Room temperature 24h): 955.778 ng/mL
- mean measured concentration ([2]; AA QC 5000ng, 3 freeze-thaw cycles): 4777.45 ng/mL
- mean measured concentration ([2]; AA QC 5000ng, 7 days at -80°C): 4737.9 ng/mL
- mean measured concentration ([2]; AA QC 5000ng, Room temperature 24h): 4689.24 ng/mL
- stability, Accuracy (measured versus nominal concentration) [2, 3]: 109.65%
- stability, mean ± SD (measured concentration) [2, 3]: 175 ± 7.36 ng/mL
- stability, Accuracy (measured versus nominal concentration) [2, 4]: 105.52%
- stability, mean ± SD (measured concentration) [2, 4]: 169 ± 8.62 ng/mL
- stability, Accuracy (measured versus nominal concentration) [2, 5]: 94.94%
- stability, mean ± SD (measured concentration) [2, 5]: 152 ± 6.95 ng/mL
- stability, Accuracy (measured versus nominal concentration) [2, 6]: 94.77%
- stability, mean ± SD (measured concentration) [2, 6]: 948 ± 56.6 ng/mL
- stability, Accuracy (measured versus nominal concentration) [2, 7]: 91.94%
- stability, mean ± SD (measured concentration) [2, 7]: 919 ± 34.8 ng/mL
- stability, Accuracy (measured versus nominal concentration) [2, 8]: 95.58%
- stability, mean ± SD (measured concentration) [2, 8]: 956 ± 68.0 ng/mL
- stability, Accuracy (measured versus nominal concentration) [2, 9]: 95.55%
- stability, mean ± SD (measured concentration) [2, 9]: 4777 ± 82.6 ng/mL
- stability, Accuracy (measured versus nominal concentration) [2, 10]: 94.76%
- stability, mean ± SD (measured concentration) [2, 10]: 4738 ± 174 ng/mL
- stability, Accuracy (measured versus nominal concentration) [2, 11]: 93.78%
- stability, mean ± SD (measured concentration) [2, 11]: 4689 ± 298 ng/mL
SMILES: C=C(C(=O)O)[C@@H]1CC[C@@H](C)[C@@H]2CCC(C)=C[C@@H]21 [AA, Artemisinic acid]
- Cell survival rate%, single replicate (Caco-2 cells; Caco-2, 5μmol/L): 86.78% and 81.42% and 81.32% and 82.7% and 86.07% and 80.23%
- Cell survival rate%, single replicate (Caco-2 cells; Caco-2, 10μmol/L): 83.23% and 82.76% and 85.19% and 84.02% and 81.01% (2×)
- Cell survival rate%, single replicate (Caco-2 cells; Caco-2, 20μmol/L): 82.79% and 80.95% and 80.96% and 82.01% and 83.04% and 83.63%
- Cell survival rate%, single replicate (Caco-2 cells; Caco-2, 40μmol/L): 79.21% and 80.38% and 82.01% and 81.79% and 85.15% and 82.39%
- Cell survival rate%, single replicate (Caco-2 cells; Caco-2, 80μmol/L): 81.2% and 78.64% and 82.71% and 80.82% and 78.89% and 79.03%
- cck-8 cell survival as fraction, single replicate (Caco-2 cells; Caco-2, concentration 5 μmol/L): 0.8678 and 0.8142 and 0.8132 and 0.827 and 0.8607 and 0.8023
- Cell survival rate% (Caco-2 cells; Caco-2, concentration 5 μmol/L): 83.09%
- cck-8 mean (survival fraction) (Caco-2 cells; Caco-2, concentration 5 μmol/L): 0.83
- cck-8 cell survival as fraction, single replicate (Caco-2 cells; [12]): 0.8323 and 0.8276 and 0.8519 and 0.8402 and 0.8101
- Cell survival rate% (Caco-2 cells; [12]): 82.87%
- cck-8 mean (survival fraction) (Caco-2 cells; [12]): 0.83
- cck-8 cell survival as fraction, single replicate (Caco-2 cells; [13]): 0.8279 and 0.8095 and 0.8096 and 0.8201 and 0.8304 and 0.8363
- Cell survival rate% (Caco-2 cells; [13]): 82.23%
- cck-8 mean (survival fraction) (Caco-2 cells; [13]): 0.82
- cck-8 cell survival as fraction, single replicate (Caco-2 cells; [14]): 0.7921 and 0.8038 and 0.8201 and 0.8179 and 0.8515 and 0.8239
- Cell survival rate% (Caco-2 cells; [14]): 81.82%
- cck-8 mean (survival fraction) (Caco-2 cells; [14]): 0.82
- cck-8 cell survival as fraction, single replicate (Caco-2 cells; [15]): 0.812 and 0.7864 and 0.8271 and 0.8082 and 0.7889 and 0.7903
- Cell survival rate% (Caco-2 cells; [15]): 80.22%
- cck-8 mean (survival fraction) (Caco-2 cells; [15]): 0.80
